Experimental data published in patent US20100034739A1, “Fungus-Specific Imaging Agents” (priority 2006, published 2010).
Positions of bridges follow the written chain, without caps; N, C: chain ends. No end group written: not given here. *: point of attachment. DOTA = O=C(O)CN1CCN(CC(=O)O)CCN(CC(=O)*)CCN(CC(=O)O)CC1

Columns and labels:
hyphae of Aspergillus = details: Lionakis et al. 2005; cited from earlier work
hyphae of Rhizopus = details: Lionakis et al. 2005; cited from earlier work
[1] = tested on: acute pulmonary aspergillosis; assay: μ-PET imaging of mice with acute pulmonary aspergillosis and normal mice; assay type: in vivo; details: μ-PET at 30 and 90 minutes, i.v. approx. 200 μCi per mouse, not seen in normal mice
Procedure: FIG. 5A illustrates μ-PET images of mice injected with the ^68Ga-labeled peptide of FIG. 4. […] Arrows indicate accumulated imaging agent.
Mice weighing approximately 20 g each were injected intravenously with the imaging agent of FIG. 4 to provide radioisotope at a level of approximately 200 μCi per mouse. μ-PET imaging was performed at 30 and 90 minutes after injection. Control mice had no fungal infection, while infected mice had acute pulmonary aspergillosis. μ-PET images of normal and infected mice are shown in FIG. 5A. Arrows in FIG. 5A indicate the accumulated radiotracer.

Aspergillus = assay: autoradiography and GMS histology of excised lung slices; assay type: in vivo, mice
Procedure: FIG. 5B illustrates autoradiography of the lungs of mice injected with the ^68Ga-labeled peptide of FIG. 4.
FIG. 6 illustrates histology and autoradiography of excised lung tissue from a mouse injected with Ga-68-labeled peptide of FIG. 4. The mouse had acute pulmonary aspergillosis.
Lungs were removed from the mice after the 90 minute imaging session and snap frozen, then cut into 20 μm slices. These slices were air-dried and exposed to a phosphors screen. The screen was exposed for 10 minutes.
To confirm that tissue labeled with the imaging agent was actually infected with Aspergillus, histology of lung tissue labeled by the imaging agent in an infected mouse was performed. The corresponding gamma scintogram and histology data are show in FIG. 6. […] Note the black-stained organisms correlated with distribution of radioactivity in autoradiography (lower left image) of excised lung tissue from a mouse injected with Ga-68-labeled peptide of FIG. 4.

[2] = tested on: acute pulmonary aspergillosis; details: i.v. approx. 80 μCi per mouse
Procedure: FIG. 2 illustrates gamma scintography of mice injected with the ^111In-labeled peptide of FIG. 1. […] Arrows indicate radiotracer in the lung.
Gamma scintography was performed at 30 and 120 minutes after injection. […] Experiments were performed 1 to 2 days after infection. The same mouse is shown for each test type at 30 and 120 minutes. Arrows in FIG. 2 indicate the accumulated radiotracer. Radiotracer accumulation in the lungs of the control mouse was not visible at 120 minutes after injection. Increased radiotracer could be seen as little as 5 minutes after injection.

## c(CWGHSRDEC) (disulfide 1-9 (inferred))
Hyphae of Aspergillus
  binding in vitro to the hyphae of Aspergillus: bind in vitro
Hyphae of Rhizopus
  binding in vitro to the hyphae of Rhizopus: bind in vitro

## ^68Ga-DOTA-CGGRLGPFC ({DOTA}-CGGRLGPFC; not fully specified (bridges); also: 68Ga chelated by DOTA, cyclic, type of ring bond not given here) [imaging agent of FIG. 4]
[1]
  radiotracer accumulation in the lungs of infected mice: can be clearly seen
Aspergillus; autoradiography of 20 μm slices, lungs removed after the 90 minute imaging session, infected mouse
  radioactivity in lung slices of the infected mouse: Heterogeneous distribution of radioactivity
Aspergillus; autoradiography of 20 μm slices, lungs removed after the 90 minute imaging session, normal mouse
  radioactivity in lung slices of the normal mouse: Little radioactivity
Aspergillus; excised lung tissue of an infected mouse, FIG. 6
  relation of GMS-stained Aspergillus organisms to distribution of radioactivity in autoradiography: correlated

## c(CGGRLGPFC) (disulfide 1-9 (inferred))
Hyphae of Aspergillus
  binding in vitro to the hyphae of Aspergillus: bind in vitro
Hyphae of Rhizopus
  binding in vitro to the hyphae of Rhizopus: bind in vitro

## ^111In-DTPA-Benzyl-NH-Succinic Acid-CGGRLGPFC [imaging agent of FIG. 1]
[2]; control mouse without fungal infection, 120 minutes after injection
  radiotracer accumulation in the lungs of the control mouse: not visible
[2]; gamma scintography
  time after injection at which increased radiotracer could be seen: 5 min
